Measurements from article PMC5067704 (ACS Infectious Diseases, 2016).
Converted amounts (≈) assume the structure as drawn.

System: E. coli tolC mutant
Assay: microbe, parasite or virus in culture
Assay type: cell-based, Escherichia coli
Details: Escherichia coli, read-out: MIC E. coli tolC mutant

Compared with `COc1cc(Cc2cnc(N)nc2N)cc(OC)c1OCCCCn1cc(CNc2ccc([N+](=O)[O-])c3nonc23)nn1` [compound 12b], `COc1cc(Cc2cnc(N)nc2N)cc(OC)c1OCCCCn1cc(CNC(=O)Cc2cc(=O)oc3cc(N(C)C)ccc23)nn1` [compound 13b] is 8-fold higher in MIC: 0.25 µg/mL (≈ 0.423 µM) for the first, 2 µg/mL (≈ 3.04 µM) for the second.

`COc1cc(Cc2cnc(N)nc2N)cc(OC)c1OCCCCCN=[N+]=[N-]` [8c] gave an MIC of 0.125 µg/mL (≈ 0.323 µM).

Same assay, conditions: molar equivalent of the μg/mL value

For `COc1cc(Cc2cnc(N)nc2N)cc(OC)c1OCCCCn1cc(CNc2ccc([N+](=O)[O-])c3nonc23)nn1` [compound 12b], the “MIC E. coli ΔtolC” value was 0.37 µM.

Biological target: T1, E. coli dihydrofolate reductase (eDHFR) (Escherichia coli, UniProt P0ABQ4)
T1 construct: host or cells: cell-free (PURExpress in vitro protein synthesis)
T1 sequence (P0ABQ4 whole entry): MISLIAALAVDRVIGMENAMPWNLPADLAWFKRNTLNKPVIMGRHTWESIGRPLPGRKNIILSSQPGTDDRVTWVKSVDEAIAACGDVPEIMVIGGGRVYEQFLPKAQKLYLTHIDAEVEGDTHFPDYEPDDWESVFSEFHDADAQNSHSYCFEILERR
Assay: DHFR enzyme inhibition assay
Assay type: biochemical
Details: not given

`COc1cc(Cc2cnc(N)nc2N)cc(OC)c1OCCCCn1cc(CNc2ccc([N+](=O)[O-])c3nonc23)nn1` [compound 12b] and `COc1cc(Cc2cnc(N)nc2N)cc(OC)c1OCCCCn1cc(CNC(=O)Cc2cc(=O)oc3cc(N(C)C)ccc23)nn1` [compound 13b] are within 1.5-fold of each other in IC50: 0.148 µM for the first, 0.162 µM for the second.

`COc1cc(Cc2cnc(N)nc2N)cc(OC)c1OCCCCCN=[N+]=[N-]` [8c] showed an IC50 of 0.14 µM.

System: E. coli ATCC 25922
Assay: MIC determination, E. coli ATCC 25922 (wild type)
Assay type: cell-based, Escherichia coli
Details: Escherichia coli, ATCC25922, molar equivalent of the μg/mL value; read-out: MIC E. coli ATCC 25922, in μM

For `COc1cc(Cc2cnc(N)nc2N)cc(OC)c1OCCCCn1cc(CNc2ccc([N+](=O)[O-])c3nonc23)nn1` [compound 12b], the MIC was 24 µM.

Same assay, conditions: Escherichia coli, ATCC25922, wild type; n = 4; read-out: MIC E. coli ATCC 25922

First: COc1cc(Cc2cnc(N)nc2N)cc(OC)c1OCCCCn1cc(CNC(=O)Cc2cc(=O)oc3cc(N(C)C)ccc23)nn1 [compound 13b]
Second: COc1cc(Cc2cnc(N)nc2N)cc(OC)c1OCCCCCN=[N+]=[N-] [8c]
The MIC of the first is higher: > 64 µg/mL for the first, 32 µg/mL for the second.

System: E. coli DC2 mutant
Assay: microbe, parasite or virus in culture
Assay type: cell-based
Details: Escherichia coli, DC2MUTANT, read-out: MIC E. coli DC2 mutant

`COc1cc(Cc2cnc(N)nc2N)cc(OC)c1OCCCCn1cc(CNc2ccc([N+](=O)[O-])c3nonc23)nn1` [compound 12b] and `COc1cc(Cc2cnc(N)nc2N)cc(OC)c1OCCCCn1cc(CNC(=O)Cc2cc(=O)oc3cc(N(C)C)ccc23)nn1` [compound 13b] cannot be ordered by MIC: > 64 µg/mL for the first, > 64 µg/mL for the second.

`COc1cc(Cc2cnc(N)nc2N)cc(OC)c1OCCCCCN=[N+]=[N-]` [8c] showed an MIC of 8 µg/mL (≈ 20.6 µM).

System: E. coli MB4827
Assay: MIC determination, E. coli MB4827
Assay type: cell-based
Details: Escherichia coli, n = 4

`COc1cc(Cc2cnc(N)nc2N)cc(OC)c1OCCCCn1cc(CNc2ccc([N+](=O)[O-])c3nonc23)nn1` [compound 12b] and `COc1cc(Cc2cnc(N)nc2N)cc(OC)c1OCCCCn1cc(CNC(=O)Cc2cc(=O)oc3cc(N(C)C)ccc23)nn1` [compound 13b] cannot be ordered by MIC: > 64 µg/mL for the first, > 64 µg/mL for the second.

`COc1cc(Cc2cnc(N)nc2N)cc(OC)c1OCCCCCN=[N+]=[N-]` [8c] showed an MIC of 32 µg/mL (≈ 82.6 µM).

System: S. aureus ATCC 25923
Assay: MIC determination, S. aureus ATCC 25923
Assay type: cell-based
Details: Staphylococcus aureus, ATCC25923, molar equivalent of the μg/mL value; read-out: MIC S. aureus ATCC 25923, in μM

With `COc1cc(Cc2cnc(N)nc2N)cc(OC)c1OCCCCn1cc(CNc2ccc([N+](=O)[O-])c3nonc23)nn1` [compound 12b] the MIC was > 94 µM.

Same assay, conditions: Staphylococcus aureus, ATCC25923, n = 4; read-out: MIC S. aureus ATCC 25923

First: COc1cc(Cc2cnc(N)nc2N)cc(OC)c1OCCCCn1cc(CNC(=O)Cc2cc(=O)oc3cc(N(C)C)ccc23)nn1 [compound 13b]
Second: COc1cc(Cc2cnc(N)nc2N)cc(OC)c1OCCCCCN=[N+]=[N-] [8c]
The MIC of the first is higher: > 64 µg/mL for the first, 4 µg/mL for the second.

System: E. coli lpxC/tolC mutant
Assay: microbe, parasite or virus in culture
Assay type: cell-based
Details: Escherichia coli, read-out: MIC E. coli lpxC/tolC mutant

Going from `COc1cc(Cc2cnc(N)nc2N)cc(OC)c1OCCCCn1cc(CNc2ccc([N+](=O)[O-])c3nonc23)nn1` [compound 12b] to `COc1cc(Cc2cnc(N)nc2N)cc(OC)c1OCCCCn1cc(CNC(=O)Cc2cc(=O)oc3cc(N(C)C)ccc23)nn1` [compound 13b], the MIC rises from 0.5 µg/mL (≈ 0.845 µM) to 2 µg/mL (≈ 3.04 µM) (4-fold).

With `COc1cc(Cc2cnc(N)nc2N)cc(OC)c1OCCCCCN=[N+]=[N-]` [8c] the MIC was 0.25 µg/mL (≈ 0.645 µM).

System: not listed separately
Assay: Cytotoxicity assay (resazurin), HEK 293
Assay type: cell-based
Details: human, HEK293 cells, 20 h incubation, highest concentration 60 μM

`COc1cc(Cc2cnc(N)nc2N)cc(OC)c1OCCCCn1cc(CNc2ccc([N+](=O)[O-])c3nonc23)nn1` [compound 12b] and `COc1cc(Cc2cnc(N)nc2N)cc(OC)c1OCCCCn1cc(CNC(=O)Cc2cc(=O)oc3cc(N(C)C)ccc23)nn1` [compound 13b] cannot be ordered by CC50 at 20 h: > 60 µM for the first, > 60 µM for the second.

For `COc1cc(Cc2cnc(N)nc2N)cc(OC)c1OCCCCCN=[N+]=[N-]` [8c], the CC50 at 20 h was > 60 µM.

System: not listed separately
Assay: Cytotoxicity assay (resazurin), HepG2
Assay type: cell-based
Details: human, HepG2 cells, 20 h incubation, highest concentration 60 μM

`COc1cc(Cc2cnc(N)nc2N)cc(OC)c1OCCCCn1cc(CNc2ccc([N+](=O)[O-])c3nonc23)nn1` [compound 12b] and `COc1cc(Cc2cnc(N)nc2N)cc(OC)c1OCCCCn1cc(CNC(=O)Cc2cc(=O)oc3cc(N(C)C)ccc23)nn1` [compound 13b] cannot be ordered by CC50 at 20 h: > 60 µM for the first, > 60 µM for the second.

In the case of `COc1cc(Cc2cnc(N)nc2N)cc(OC)c1OCCCCCN=[N+]=[N-]` [8c], the CC50 at 20 h is reported as > 60 µM.

System: E. coli lpxC mutant
Assay: microbe, parasite or virus in culture
Assay type: cell-based
Details: Escherichia coli, read-out: MIC E. coli lpxC mutant

`COc1cc(Cc2cnc(N)nc2N)cc(OC)c1OCCCCn1cc(CNc2ccc([N+](=O)[O-])c3nonc23)nn1` [compound 12b] and `COc1cc(Cc2cnc(N)nc2N)cc(OC)c1OCCCCn1cc(CNC(=O)Cc2cc(=O)oc3cc(N(C)C)ccc23)nn1` [compound 13b] cannot be ordered by MIC: > 64 µg/mL for the first, > 64 µg/mL for the second.

Work on `COc1cc(Cc2cnc(N)nc2N)cc(OC)c1OCCCCCN=[N+]=[N-]` [8c] yielded an MIC of 8 µg/mL (≈ 20.6 µM).

System: E. coli clin isol
Assay: MIC determination, E. coli clinical isolate (first column)
Assay type: cell-based
Details: Escherichia coli, n = 4

`COc1cc(Cc2cnc(N)nc2N)cc(OC)c1OCCCCn1cc(CNc2ccc([N+](=O)[O-])c3nonc23)nn1` [compound 12b] and `COc1cc(Cc2cnc(N)nc2N)cc(OC)c1OCCCCn1cc(CNC(=O)Cc2cc(=O)oc3cc(N(C)C)ccc23)nn1` [compound 13b] cannot be ordered by MIC: > 64 µg/mL for the first, > 64 µg/mL for the second.

For `COc1cc(Cc2cnc(N)nc2N)cc(OC)c1OCCCCCN=[N+]=[N-]` [8c], the MIC was 16 µg/mL (≈ 41.3 µM).

System: E. coli (ATCC 25922)
Assay: LC-MS/MS bacterial accumulation assay, wild type E. coli
Assay type: cell-based, Escherichia coli
Details: example of the calculation; strain and dose not stated

With `COc1cc(Cc2cnc(N)nc2N)cc(OC)c1OCCCCn1cc(CNc2ccc([N+](=O)[O-])c3nonc23)nn1` [compound 12b] the “measured concentration using LC-MS/MS (lysate)” value was 7.122 µM.

System: E. coli clin isol
Assay: MIC determination, E. coli clinical isolate (second column)
Assay type: cell-based
Details: Escherichia coli, n = 4

`COc1cc(Cc2cnc(N)nc2N)cc(OC)c1OCCCCn1cc(CNc2ccc([N+](=O)[O-])c3nonc23)nn1` [compound 12b] and `COc1cc(Cc2cnc(N)nc2N)cc(OC)c1OCCCCn1cc(CNC(=O)Cc2cc(=O)oc3cc(N(C)C)ccc23)nn1` [compound 13b] cannot be ordered by MIC: > 64 µg/mL for the first, > 64 µg/mL for the second.

With `COc1cc(Cc2cnc(N)nc2N)cc(OC)c1OCCCCCN=[N+]=[N-]` [8c] the MIC was 16 µg/mL (≈ 41.3 µM).
